Data reported in ChEMBL document CHEMBL1152723, “Remarkable enhancement in the DNA-binding ability of C2-fluoro substituted pyrrolo[2,1-c][1,4]benzodiazepines and their anticancer potential” (2009).

Tests used:
TK-10 = test: Growth inhibition of human TK10 cells after 48 hrs by sulforhodamine B protein assay; assay type: functional; details: TK-10, 48 h
K562 = test: Growth inhibition of human K562 cells after 48 hrs by sulforhodamine B protein assay; assay type: functional; details: K562, 48 h
HOP-62 = test: Growth inhibition of human HOP62 cells after 48 hrs by sulforhodamine B protein assay; assay type: functional; details: HOP-62, 48 h
Malme-3M = test: Growth inhibition of human MALME-3M cells after 48 hrs by sulforhodamine B protein assay; assay type: functional
COLO 205 = test: Growth inhibition of human COLO205 cells after 48 hrs by sulforhodamine B protein assay; assay type: functional; details: COLO 205, 48 h
UACC-257 = test: Growth inhibition of human UACC257 cells after 48 hrs by sulforhodamine B protein assay; assay type: functional; details: UACC-257, 48 h
SR = test: Growth inhibition of human SR cells after 48 hrs by sulforhodamine B protein assay; assay type: functional
[1] = biological target: T1, Type II restriction enzyme BamHI (Bacillus amyloliquefaciens) (UniProt P23940); test: Inhibition of Bacillus amyloliquefaciens BamH1-mediated pBR322 cleavage after 16 hrs by RED100-restriction endonuclease digestion assay
T1 sequence (whole entry): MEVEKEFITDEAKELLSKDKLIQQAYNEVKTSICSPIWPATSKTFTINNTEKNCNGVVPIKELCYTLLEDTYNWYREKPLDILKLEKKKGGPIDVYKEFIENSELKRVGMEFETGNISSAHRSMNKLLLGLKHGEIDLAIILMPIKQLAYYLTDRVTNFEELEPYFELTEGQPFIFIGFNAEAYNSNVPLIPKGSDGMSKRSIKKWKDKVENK

HOP-92 = test: Growth inhibition of human HOP92 cells after 48 hrs by sulforhodamine B protein assay; assay type: functional; details: HOP-92, 48 h
A549 = test: Growth inhibition of human A549 cells after 48 hrs by sulforhodamine B protein assay; assay type: functional; details: A549, 48 h
A498 = test: Growth inhibition of human A498 cells after 48 hrs by sulforhodamine B protein assay; assay type: functional; details: A498, 48 h
OVCAR-3 = test: Growth inhibition of human OVCAR-3 cells after 48 hrs by sulforhodamine B protein assay; assay type: functional; details: OVCAR-3, 48 h
DNA = test: Binding affinity to calf thymus DNA assessed as change in melting temperature at a compound to DNA molar ratio of 1:5 at pH 7 by thermal denaturation assay; assay type: nucleic-acid assay; details: Bos taurus

Structure (SMILES): COc1cc2c(cc1OCCCN1CCN(CCCOc3cc4c(cc3OC)C(=O)N3CC(F)C[C@H]3C=N4)CC1)N=C[C@@H]1CC(F)CN1C2=O (stereo partly drawn)
- GI50 (TK-10): 0.25 µM
- GI50 (K562): < 0.01 µM
- GI50 (HOP-62): < 0.01 µM
- GI50 (Malme-3M): < 0.02 µM
- GI50 (COLO 205): < 0.04 µM
- GI50 (UACC-257): 1.27 µM
- GI50 (SR): < 0.01 µM
- Activity [1]: Dose-dependent effect
- GI50 (HOP-92): < 0.09 µM
- GI50 (A549): 0.12 µM
- GI50 (A498): < 0.06 µM
- GI50 (OVCAR-3): < 0.04 µM
- ΔTm (DNA): 37 °C
